Data: patent US5284826A, “0-hydroxyethyl and acyloxyethyl derivatives of [ser]^8 cyclosporins” (Sandoz Ltd., priority 1989, dated 1994)

Test: Stability of solid-state forms
Format: physicochemical
Settings: B form (hydrate from acetone/water) compared with amorphous form and A and C modifications
Text: Cyclosporins according to the invention may exist in the solid state in amorphous form or in one or more crystalline forms. For example, the compound of Example 2 below exists in amorphous form or in at least three crystalline forms, distinguishable by X-ray diffraction and designated the A, B and C modifications.

Structure (SMILES): C/C=C/C[C@@H](C)[C@@H](O)[C@H]1C(=O)N[C@@H](CC)C(=O)N(C)CC(=O)N(C)[C@@H](CC(C)C)C(=O)N[C@@H](C(C)C)C(=O)N(C)[C@@H](CC(C)C)C(=O)N[C@@H](C)C(=O)N[C@H](COCCO)C(=O)N(C)[C@@H](CC(C)C)C(=O)N(C)[C@@H](CC(C)C)C(=O)N(C)[C@@H](C(C)C)C(=O)N1C [Example 2, [O-(2-hydroxyethyl)(D)Ser]^8 -Ciclosporin]
- stability of crystal form: most stable
